Measurements taken from patent US8546401B2, “5,6-disubstituted oxindole-derivatives and use thereof for treating vasopressin-dependent diseases” (AbbVie Deutschland GmbH & Co. KG, priority 2007, dated 2013).

Legend:
[1] = molecular target: T1, human vasopressin V1b receptor (Homo sapiens, UniProt P47901); experiment: Vasopressin V1b receptor binding assay; conditions: CHO-K1 membranes, 3H-AVP displacement
T1 construct: expressed in transfected cells; host or cells: CHO-K1 (cell line hV1b_3H2_CHO), membrane preparation
T1 sequence (P47901 1-424): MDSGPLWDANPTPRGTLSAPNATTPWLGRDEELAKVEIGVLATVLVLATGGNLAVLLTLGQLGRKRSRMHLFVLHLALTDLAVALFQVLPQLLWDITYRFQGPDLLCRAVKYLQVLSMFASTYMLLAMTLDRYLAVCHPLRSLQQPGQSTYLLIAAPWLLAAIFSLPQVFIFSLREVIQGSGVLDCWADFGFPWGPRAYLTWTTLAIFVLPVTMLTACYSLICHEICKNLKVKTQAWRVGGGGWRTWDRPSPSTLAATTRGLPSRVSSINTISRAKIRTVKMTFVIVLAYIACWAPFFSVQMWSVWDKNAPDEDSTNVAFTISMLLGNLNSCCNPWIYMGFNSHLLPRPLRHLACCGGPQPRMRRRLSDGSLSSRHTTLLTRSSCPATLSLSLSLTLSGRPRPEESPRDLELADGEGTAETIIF
Method: 1. Vasopressin V1b Receptor Binding Assay:
The test substances were dissolved in a concentration of 10^−2 M in DMSO and further diluted to 5×10^−4 M to 5×10^−3 M. These serial DMSO predilutions were diluted 1:10 with assay buffer. The substance concentration was further diluted 1:5 in the assay mixture (2% DMSO in the mixture).
(§1) CHO-K1 cells with stably expressed human vasopressin V1b receptor (clone 3H2) were harvested and homogenized in 50 mM Tris-HCl and in the presence of protease inhibitors (Roche complete Mini #1836170) using a Polytron homogenizer at intermediate setting for 2×10 seconds, and subsequently centrifuged at 40 000×g for 1 h. The membrane pellet was again homogenized and centrifuged as described and subsequently taken up in 50 mM Tris-HCl, pH 7.4, homogenized and stored in aliquots frozen in liquid nitrogen at −190° C.
(§2) The binding assay was carried out by the method based on that of Tahara et al. (Tahara A et al., Brit. J. Pharmacol. 125, 1463-1470 (1998)).
(§3) The incubation buffer was: 50 mM Tris, 10 mM MgCl2, 0.1% BSA, pH 7.4.
In the assay mixture (250 μl), membranes (50 μg/ml protein in incubation buffer) from CHO-K1 cells with stably expressed human V1b receptors (cell line hV1b—3H2_CHO) were incubated with 1.5 nM ^3H-AVP (8-Arg-vasopressin, PerkinElmer #18479) in incubation buffer (50 mM Tris, 10 mM MgCl2, 0.1% BSA, pH 7.4) (total binding) or additionally with increasing concentrations of test substance (displacement experiment). The nonspecific binding was determined with […] (Bachem #H1780). All determinations were carried out as triplicate determinations. After incubation (60 minutes at room temperature), the free radioligand was filtered off by vacuum filtration (Skatron cell harvester 7000) through Wathman GF/B glass fiber filter mats, and the filters were transferred into scintillation vials. The liquid scintillation measurement took place in a model 2000 or 2200CA Tricarb instrument (Packard). Conversion of the measured cpm into dpm was carried out with the aid of a standard quench series.
(§4) The binding parameters were calculated by nonlinear regression in SAS. The algorithms of the program operate in analogy to the LIGAND analysis program (Munson P J and Rodbard D, Analytical Biochem. 107, 220-239 (1980)). The Kd of ^3H-AVP for the recombinant human V1b receptors is 0.4 nM and was used to determine the Ki.

human oxytocin receptors = molecular target: T2, human oxytocin receptors (Homo sapiens, UniProt P30559); experiment: Oxytocin receptor binding assay; conditions: selectivity quotient
T2 construct: expressed in transfected cells; host or cells: HEK-293, transient expression; lysed and homogenized cells
T2 sequence (P30559 1-389): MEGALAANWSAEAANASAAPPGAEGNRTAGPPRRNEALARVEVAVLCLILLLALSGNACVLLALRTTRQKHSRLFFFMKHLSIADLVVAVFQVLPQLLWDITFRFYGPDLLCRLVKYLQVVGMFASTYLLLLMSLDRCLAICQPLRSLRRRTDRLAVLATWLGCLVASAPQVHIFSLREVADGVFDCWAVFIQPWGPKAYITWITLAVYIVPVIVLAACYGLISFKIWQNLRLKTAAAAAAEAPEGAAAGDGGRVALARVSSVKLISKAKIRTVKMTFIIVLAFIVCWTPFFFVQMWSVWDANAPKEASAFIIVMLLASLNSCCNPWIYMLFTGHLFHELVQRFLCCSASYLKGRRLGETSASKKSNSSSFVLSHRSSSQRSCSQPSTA
Method: 4. Oxytocin Receptor Binding Assay
The substances were dissolved in a concentration of 10^−2 M in DMSO and diluted with incubation buffer (50 mM Tris, 10 mM MgCl2, 0.1% BSA, pH 7.4).
Confluent HEK-293 cells with transiently expressing recombinant human oxytocin receptors were centrifuged at 750×g at room temperature for 5 minutes. The residue was taken up in ice-cold lysis buffer (50 mM Tris-HCl, 10% glycerol, pH 7.4 and Roche complete protease inhibitor) and subjected to an osmotic shock at 4° C. for 20 minutes. The lyzed cells were then centrifuged at 750×g at 4° C. for 20 minutes, the residue was taken up in incubation buffer, and aliquots of 10^7 cells/ml were prepared. The aliquots were frozen at −80° C. until used.
On the day of the experiment, the cells were thawed, diluted with incubation buffer and homogenized using a Multipette Combitip (Eppendorf, Hamburg). The reaction mixture of 0.250 ml was composed of 2 to 5×10^4 recombinant cells, 3-4 nM ^3H-oxytocin (PerkinElmer, NET 858) in the presence of test substance (inhibition plot) or only incubation buffer (total binding). The nonspecific binding was determined with 10^−6 M oxytocin (Bachem AG, H2510). Triplicate determinations were set up. Bound and free radioligand were separated by filtration under vacuum with Whatman GF/B glass fiber filters with the aid of a Skatron cell harvester 7000. The bound radioactivity was determined by liquid scintillation measurement in a Tricarb Beta counter, model 2000 or 2200CA (Packard).
The binding parameters were calculated by nonlinear regression analysis (SAS) in analogy to the LIGAND program of Munson and Rodbard (Analytical Biochem 1980; 107: 220-239). The Kd of ^3H-oxytocin for the recombinant hOT receptors is 7.6 nM and was used to determine the Ki.

[2] = molecular target: T3, human vasopressin V1a receptor (Homo sapiens, UniProt P37288); experiment: Vasopressin V1a receptor binding assay; conditions: selectivity quotient, human receptors
T3 construct: expressed in transfected cells; host or cells: CHO-K1 (cell line hV1a_5_CHO), membrane preparation
Method: 2. Vasopressin V1a Receptor Binding Assay:
The test substances were dissolved in a concentration of 10^−2 M in DMSO. Further dilution of these DMSO solutions took place in incubation buffer (50 mM Tris, 10 mM MgCl2, 0.1% BSA, pH 7.4).
as §1, with “V1a” for “V1b”, “5)” for “3H2)”
as §2, §3
In the assay mixture (250 μl), membranes (20 μg/ml protein in incubation buffer) from CHO-K1 cells with stably expressed human V1a receptors (cell line hV1a—5_CHO) were incubated with 0.04 nM ^125I-AVP (8-Arg-vasopressin, NEX 128) in incubation buffer (50 mM Tris, 10 mM MgCl2, 0.1% BSA, pH 7.4) (total binding) or additionally with increasing concentrations of test substance (displacement experiment). The nonspecific binding was determined with 1 μM AVP (Bachem #H1780). Triplicate determinations were carried out.
After incubation (60 minutes at room temperature), the free radioligand was filtered off by vacuum filtration (Skatron cell harvester 7000) through Wathman GF/B glass fiber filter mats, and the filters were transferred into scintillation vials.
The liquid scintillation measurement took place in a model 2000 or 2200CA Tricarb instrument (Packard). Conversion of the measured cpm into dpm was carried out with the aid of a standard quench series.
as §4, with “^125I-AVP” for “^3H-AVP”, “hV1a” for “human V1b”, “was determined in saturation experiments. A Kd of 1.33” for “is 0.4”, “nM” for “nM and”

T3 sequence (P37288 whole entry): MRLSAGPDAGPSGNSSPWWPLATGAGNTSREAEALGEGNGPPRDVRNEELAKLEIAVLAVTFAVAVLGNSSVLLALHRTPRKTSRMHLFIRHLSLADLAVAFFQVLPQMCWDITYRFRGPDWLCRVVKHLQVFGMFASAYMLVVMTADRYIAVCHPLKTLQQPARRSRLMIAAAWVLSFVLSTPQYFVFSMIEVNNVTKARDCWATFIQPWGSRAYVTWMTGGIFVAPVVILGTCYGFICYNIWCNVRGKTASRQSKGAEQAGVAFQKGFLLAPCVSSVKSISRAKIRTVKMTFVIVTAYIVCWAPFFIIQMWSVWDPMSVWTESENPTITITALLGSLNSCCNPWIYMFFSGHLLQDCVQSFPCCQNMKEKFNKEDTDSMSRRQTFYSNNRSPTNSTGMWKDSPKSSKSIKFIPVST

| SMILES | Ki [1] [nM] | Ki(h − OT)/Ki(h − V1b)* (human oxytocin receptors) | Ki(h − V1a)/Ki(h − V1b)* [2] |
| --- | --- | --- | --- |
| CCOc1ccccc1C1(NC(=O)N2CCN(C3CCN(C)CC3)CC2)C(=O)N(S(=O)(=O)c2ccc(OC)cc2)c2cc(F)c(C#N)cc21 (stereo not drawn) [Example 10, 4-(1-Methylpiperidin-4-yl)piperazine-1-[5-cyano-3-(2-ethoxyphenyl)-6-fluoro-1-(4-methoxyphenylsulfonyl)-2-oxo-2,3-dihydro-1H-indol-3-yl]carboxamide] | 1 to 10 | + (10-<25) | ++ (25-75) |
| CCOc1ccccc1C1(NC(=O)N2CCN(C3CCN(CC)CC3)CC2)C(=O)N(S(=O)(=O)c2ccc(OC)cc2OC)c2cc(F)c(C#N)cc21 (stereo not drawn) [Example 11, 4-(1-Ethylpiperidin-4-yl)piperazine-1-[5-cyano-1-(2,4-dimethoxyphenylsulfonyl)-3-(2-ethoxyphenyl)-6-fluoro-2-oxo-2,3-dihydro-1H-indol-3-yl]carboxamide] | < 1 | +++ (>75) | +++ (>75) |
| CCOc1ccccc1C1(NC(=O)N2CCN(C3CCN(CC)CC3)CC2)C(=O)N(S(=O)(=O)c2ccc(OC)cc2)c2cc(F)c(C#N)cc21 (stereo not drawn) [Example 12, 4-(1-Ethylpiperidin-4-yl)piperazine-1-[5-cyano-3-(2-ethoxyphenyl)-6-fluoro-1-(4-methoxyphenylsulfonyl)-2-oxo-2,3-dihydro-1H-indol-3-yl]carboxamide] | 1 to 10 | +++ (>75) | +++ (>75) |
| CCOc1ccccc1C1(NC(=O)N2CCN(C3CCN(CC)CC3)CC2)C(=O)N(S(=O)(=O)c2ccccc2)c2cc(F)c(C#N)cc21 (stereo not drawn) [Example 13, 4-(1-Ethylpiperidin-4-yl)piperazine-1-[1-phenylsulfonyl-5-cyano-3-(2-ethoxyphenyl)-6-fluoro-2-oxo-2,3-dihydro-1H-indol-3-yl]carboxamide] | 1 to 10 | +++ (>75) | ++ (25-75) |
| CCOc1ccccc1C1(NC(=O)N2CCC(N3CCN(C)CC3)CC2)C(=O)N(S(=O)(=O)c2ccc(OC)cc2OC)c2cc(F)c(C#N)cc21 (stereo not drawn) [Example 14, 4-(4-Methylpiperazin-1-yl)piperidine-1-[5-cyano-1-(2,4-dimethoxyphenylsulfonyl)-3-(2-ethoxyphenyl)-6-fluoro-2-oxo-2,3-dihydro-1H-indol-3-yl]carboxamide] | 1 to 10 | +++ (>75) | + (10-<25) |
| CCOc1ccccc1C1(NC(=O)N2CCC(N3CCN(C)CC3)CC2)C(=O)N(S(=O)(=O)c2ccc(OC)cc2)c2cc(F)c(C#N)cc21 (stereo not drawn) [Example 15, 4-(4-Methylpiperazin-1-yl)piperidine-1-[5-cyano-3-(2-ethoxyphenyl)-6-fluoro-1-(4-methoxyphenylsulfonyl)-2-oxo-2,3-dihydro-1H-indol-3-yl]carboxamide] | 1 to 10 | +++ (>75) | + (10-<25) |
| CCOc1ccccc1C1(NC(=O)N2CCC(N3CCN(CC)CC3)CC2)C(=O)N(S(=O)(=O)c2ccc(OC)cc2OC)c2cc(F)c(C#N)cc21 (stereo not drawn) [Example 16, 4-(4-Ethylpiperazin-1-yl)piperidine-1-[5-cyano-1-(2,4-dimethoxyphenylsulfonyl)-3-(2-ethoxyphenyl)-6-fluoro-2-oxo-2,3-dihydro-1H-indol-3-yl]carboxamide] | < 1 | +++ (>75) | + (10-<25) |
| CCOc1ccccc1C1(NC(=O)N2CCC(N3CCN(CC)CC3)CC2)C(=O)N(S(=O)(=O)c2ccc(OC)cc2)c2cc(F)c(C#N)cc21 (stereo not drawn) [Example 17, 4-(4-Ethylpiperazin-1-yl)piperidine-1-[5-cyano-3-(2-ethoxyphenyl)-6-fluoro-1-(4-methoxyphenylsulfonyl)-2-oxo-2,3-dihydro-1H-indol-3-yl]carboxamide] | 1 to 10 | +++ (>75) | + (10-<25) |
| CCOc1ccccc1C1(NC(=O)N2CCC(N3CCN(CC)CC3)CC2)C(=O)N(S(=O)(=O)c2ccccc2)c2cc(F)c(C#N)cc21 (stereo not drawn) [Example 18, 4-(4-Ethylpiperazin-1-yl)piperidine-1-[1-phenylsulfonyl-5-cyano-3-(2-ethoxyphenyl)-6-fluoro-2-oxo-2,3-dihydro-1H-indol-3-yl]carboxamide] | 1 to 10 | +++ (>75) | + (10-<25) |
